This note sets out measurements from patent publication US8173653B2, “Pyridiazinone derivatives for the treatment of tumours” (Merck Patent Gesellschaft MIT Beschraenkter Haftung, priority 2005, dated 2012).

The target of this assay is T1, Met kinase (Homo sapiens, UniProt P08581).
T1 construct: 6His (N); purchased Upstate 14-526; host or cells: insect cells (Sf21; S. frugiperda), baculovirus
T1 sequence (P08581 974-1390 limits assumed): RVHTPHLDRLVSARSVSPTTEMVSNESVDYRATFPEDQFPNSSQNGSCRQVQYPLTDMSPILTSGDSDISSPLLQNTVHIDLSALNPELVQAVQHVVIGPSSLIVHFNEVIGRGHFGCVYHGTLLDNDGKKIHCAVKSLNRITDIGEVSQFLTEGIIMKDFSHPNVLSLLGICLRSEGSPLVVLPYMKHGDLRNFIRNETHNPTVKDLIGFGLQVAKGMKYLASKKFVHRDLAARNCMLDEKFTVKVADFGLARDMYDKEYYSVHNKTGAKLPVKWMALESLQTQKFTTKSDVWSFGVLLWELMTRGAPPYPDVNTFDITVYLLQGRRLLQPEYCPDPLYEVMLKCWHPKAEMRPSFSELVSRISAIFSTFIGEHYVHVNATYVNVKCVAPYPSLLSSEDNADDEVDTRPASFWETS
As to the kind of experiment: Met kinase inhibition (enzyme assay), flashplate method. It is filed as biochemical. On the procedure:
Flashplate Method (Met Kinase)
The test plates used are 96-well Flashplate® microtitre plates from Perkin Elmer (Cat. No. SMP200). The components of the kinase reaction described below are pipetted into the assay plate. The Met kinase and the substrate poly Ala-Glu-Lys-Tyr, (PAGLT, 6:2:5:1), are incubated for 3 hrs at room temperature with radioactively labelled ^33P-ATP in the presence and absence of test substances in a total volume of 100 μl. The reaction is terminated using 150 μl of a 60 mM EDTA solution. After incubation for a further 30 min at room temperature, the supernatants are filtered off with suction, and the wells are washed three times with 200 μl of 0.9% NaCl solution each time. The measurement of the bound radioactivity is carried out by means of a scintillation measuring instrument (Topcount NXT, Perkin-Elmer).
The full value used is the inhibitor-free kinase reaction. This should be approximately in the range 6000-9000 cpm. The pharmacological zero value used is staurosporin in a final concentration of 0.1 mM. The inhibitory values (IC50) are determined using the RS1_MTS program.
Kinase reaction conditions per well: • 30 μl of assay buffer • 10 μl of substance to be tested in assay buffer with 10% of DMSO • 10 μl of ATP (final concentration 1 μM cold, 0.35 μCi of ^33P-ATP) • 50 μl of Met kinase/substrate mixture in assay buffer; (10 ng of enzyme/well, 50 ng of pAGLT/well)
Assay Buffer: • 50 mM HEPES • 3 mM magnesium chloride • 3 μM sodium orthovanadate • 3 mM manganese(II) chloride • 1 mM dithiothreitol (DTT) • pH=7.5 (to be set using sodium hydroxide)
Turning to `CC(=O)Nc1cccc(Cn2nc(-c3cccc(O)c3)ccc2=O)c1` [A2, N-{3-[3-(3-hydroxyphenyl)-6-oxo-6H-pyridazin-1-ylmethyl]phenyl}acetamide], the IC50 lay within 10 to 1000 nM.

In turn, `CCOC(=O)Nc1cccc(Cn2nc(-c3ccc(Cl)cc3)ccc2=O)c1` [A3, ethyl {3-[3-(4-chlorophenyl)-6-oxo-6H-pyridazin-1-ylmethyl]phenyl}carbamate] came in with an IC50 of 10 to 1000 nM.

`COc1ccc(-c2ccc(=O)n(Cc3cccc(NC(C)=O)c3)n2)cc1OC` [A4] yielded an IC50 of 10 to 1000 nM.

Compound `CCOC(=O)Nc1cccc(Cn2nc(-c3ccc(F)cc3)ccc2=O)c1` [A5] had an IC50 of 10 to 1000 nM.

In turn, `CCOC(=O)Nc1cccc(Cn2nc(-c3cccc(Br)c3)ccc2=O)c1` [A6] displayed an IC50 of 10 to 1000 nM.

On to `CC(=O)Nc1cccc(Cn2nc(-c3ccc(F)cc3)ccc2=O)c1` [A7], for which the IC50 was 10 to 1000 nM.

In the case of `CCOC(=O)Nc1cccc(Cn2nc(-c3ccccc3)ccc2=O)c1` [A9], the IC50 lay within 10 to 1000 nM.

The compound `CCOC(=O)Nc1cccc(Cn2nc(-c3cccc(Cl)c3)ccc2=O)c1` [A10] gave an IC50 of 10 to 1000 nM.

As for `O=c1ccc(-c2ccc(F)cc2)nn1Cc1ccc2c(c1)OCO2` [A12], the IC50 was 10 to 1000 nM.

In turn, `O=c1ccc(-c2ccc(F)cc2)nn1Cc1ccc2nsnc2c1` [A14] gave an IC50 of 10 to 1000 nM.

Regarding `CN(C)CCCOC(=O)Nc1cccc(Cn2nc(-c3ccc(Cl)cc3)ccc2=O)c1` [A15, 3-dimethylaminopropyl {3-[3-(4-chlorophenyl)-6-oxo-6H-pyridazin-1-ylmethyl]phenyl}carbamate], the IC50 lay in the range of 10 to 1000 nM.

Compound `CN(C)CCCOC(=O)Nc1cccc(Cn2nc(-c3cccc(Cl)c3)ccc2=O)c1` [A17] had an IC50 of 10 to 1000 nM.

Compound `CCNC(=O)Nc1cccc(Cn2nc(-c3ccc(F)cc3)ccc2=O)c1` [A18, 1-ethyl-3-{3-[3-(4-fluorophenyl)-6-oxo-6H-pyridazin-1-ylmethyl]phenyl}urea] had an IC50 of 10 to 1000 nM.

Compound `CCOC(=O)Nc1cccc(Cn2nc(-c3cccs3)ccc2=O)c1` [A19] yielded an IC50 of 10 to 1000 nM.

`CCNC(=O)Nc1cccc(Cn2nc(-c3cccc(Cl)c3)ccc2=O)c1` [A20]: the concentration for half-maximal inhibition (IC50) lay in the range of 10 to 1000 nM.

`CCOC(=O)Nc1cccc(Cn2nc(-c3cccc(F)c3)ccc2=O)c1` [A38] came in with an IC50 of 10 to 1000 nM.

The compound `CN(C)CCCOC(=O)Nc1cccc(Cn2nc(-c3cccc(C#N)c3)ccc2=O)c1` [A61, 3-Dimethylaminopropyl {3-[3-(3-cyanophenyl)-6-oxo-6H-pyridazin-1-ylmethyl]phenyl}carbamate] came in with an IC50 of 10 to 1000 nM.

For `O=C(Nc1cccc(Cn2nc(-c3cccs3)ccc2=O)c1)OCCCN1CCOCC1` [A71, 3-Morpholin-4-ylpropyl [3-(6-oxo-3-thiophen-2-yl-6H-pyridazin-1-ylmethyl)phenyl]carbamate], the IC50 fell in the range of 10 to 1000 nM.

Compound `O=C(Nc1cccc(Cn2nc(-c3cc(F)cc(F)c3)ccc2=O)c1)OCCCN1CCCC1` [A74, 3-Pyrrolidin-1-ylpropyl {3-[3-(3,5-difluorophenyl)-6-oxo-6H-pyridazin-1-ylmethyl]phenyl}carbamate] returned an IC50 of 10 to 1000 nM.

The compound `COCCCOC(=O)Nc1cccc(Cn2nc(-c3cc(F)cc(F)c3)ccc2=O)c1` [A75, 3-Methoxypropyl {3-[3-(3,5-difluorophenyl)-6-oxo-6H-pyridazin-1-ylmethyl]phenyl}carbamate] had an IC50 of 10 to 1000 nM.

As for `O=C(Nc1cccc(Cn2nc(-c3cc(F)c(F)c(F)c3)ccc2=O)c1)OCCCN1CCOCC1` [A78, 3-Morpholin-4-ylpropyl {3-[6-oxo-3-(3,4,5-trifluorophenyl)-6H-pyridazin-1-ylmethyl]phenyl}carbamate], the IC50 was 10 to 1000 nM.

For the compound `O=C(Nc1cccc(Cn2nc(-c3ccc(F)c(F)c3)ccc2=O)c1)OCCN1CCOCC1` [A81, 2-Morpholin-4-ylethyl {3-[3-(3,4-difluorophenyl)-6-oxo-6H-pyridazin-1-ylmethyl]phenyl}carbamate], the IC50 lay within 10 to 1000 nM.

`N#Cc1cccc(-c2ccc(=O)n(Cc3cccc(NC(=O)OCCCN4CCOCC4)c3)n2)c1` [A88, 3-Morpholin-4-ylpropyl{3-[3-(3-cyanophenyl)-6-oxo-6H-pyridazin-1-ylmethyl]phenyl}carbamate] had an IC50 of 10 to 1000 nM.

In the case of `CN1CCN(CCOC(=O)Nc2cccc(Cn3nc(-c4ccc(F)c(F)c4)ccc3=O)c2)CC1` [A92, 2-(4-Methylpiperazin-1-yl)ethyl {3-[3-(3,4-difluorophenyl)-6-oxo-6H-pyridazin-1-ylmethyl]phenyl}carbamate], the IC50 was 10 to 1000 nM.

`O=C(Nc1cccc(Cn2nc(-c3cc(F)c(F)c(F)c3)ccc2=O)c1)OCCN1CCOCC1` [A95, 2-Morpholin-4-ylethyl {3-[6-oxo-3-(3,4,5-trifluorophenyl)-6H-pyridazin-1-ylmethyl]phenyl}carbamate]: the IC50 is 10 to 1000 nM.

With `CN1CCN(CCCOC(=O)Nc2cccc(Cn3nc(-c4cc(F)c(F)c(F)c4)ccc3=O)c2)CC1` [A101, 3-(4-Methylpiperazin-1-yl)propyl {3-[6-oxo-3-(3,4,5-trifluorophenyl)-6H-pyridazin-1-ylmethyl]phenyl}carbamate], the IC50 lay in the range of 10 to 1000 nM.

Take `CN1CCN(CCCCOC(=O)Nc2cccc(Cn3nc(-c4cc(F)cc(F)c4)ccc3=O)c2)CC1` [A103, 4-(4-Methylpiperazin-1-yl)butyl {3-[3-(3,5-difluorophenyl)-6-oxo-6H-pyridazin-1-ylmethyl]phenyl}carbamate]: the IC50 lay within 10 to 1000 nM.

Consider `CN1CCCC1CCOC(=O)Nc1cccc(Cn2nc(-c3cc(F)cc(F)c3)ccc2=O)c1` (stereo not shown) [A105, 2-(1-Methylpyrrolidin-2-yl)ethyl {3-[3-(3,5-difluorophenyl)-6-oxo-6H-pyridazin-1-ylmethyl]phenyl}carbamate], for which the IC50 was in the range of 10 to 1000 nM.

`CN1CCCC(COC(=O)Nc2cccc(Cn3nc(-c4cc(F)cc(F)c4)ccc3=O)c2)C1` (stereo not shown) [A106, 1-Methylpiperidin-3-ylmethyl {3-[3-(3,5-difluorophenyl)-6-oxo-6H-pyridazin-1-ylmethyl]phenyl}carbamate] had an IC50 of 10 to 1000 nM.

As for `CN1CCN(CCCOC(=O)Nc2cccc(Cn3nc(-c4cccc(C#N)c4)ccc3=O)c2)CC1` [A107, 3-(4-Methylpiperazin-1-yl)propyl {3-[3-(3-cyanophenyl)-6-oxo-6H-pyridazin-1-ylmethyl]phenyl}carbamate], the IC50 was 10 to 1000 nM.

`CCN(CC)CCCOC(=O)Nc1cccc(Cn2nc(-c3cc(F)cc(F)c3)ccc2=O)c1` [A109, 3-Diethylaminopropyl {3-[3-(3,5-difluorophenyl)-6-oxo-6H-pyridazin-1-ylmethyl]phenyl}carbamate] gave an IC50 of 10 to 1000 nM.

`CN(C)CCCCOC(=O)Nc1cccc(Cn2nc(-c3cc(F)cc(F)c3)ccc2=O)c1` [A110, 4-Dimethylaminobutyl {3-[3-(3,5-difluorophenyl)-6-oxo-6H-pyridazin-1-ylmethyl]phenyl}carbamate] displayed an IC50 of 10 to 1000 nM.

`O=c1[nH]c2ccc(Cn3nc(-c4cccc(F)c4)ccc3=O)cc2[nH]1` [A127, 5-[3-(3-fluorophenyl)-6-oxo-6H-pyridazin-1-ylmethyl]-1,3-dihydrobenzimidazol-2-one] displayed an IC50 of 10 to 1000 nM.

Turning to `CNCCCOC(=O)Nc1cccc(Cn2nc(-c3cc(F)cc(F)c3)ccc2=O)c1` [A142, 3-methylaminopropyl {3-[3-(3,5-difluorophenyl)-6-oxo-6H-pyridazin-1-ylmethyl]phenyl}carbamate], the IC50 fell in the range of 10 to 1000 nM.

Take `O=C(Nc1cccc(Cn2nc(-c3cc(F)cc(F)c3)ccc2=O)c1)OCCN1CCNCC1` [A143, 2-Piperazin-1-ylethyl {3-[3-(3,5-difluorophenyl)-6-oxo-6H-pyridazin-1-ylmethyl]phenyl}carbamate]: the IC50 lay in the range of 10 to 1000 nM.

Compound `O=C(Nc1cccc(Cn2nc(-c3cc(F)cc(F)c3)ccc2=O)c1)OCCCN1CCNCC1` [A145, 3-Piperazin-1-ylpropyl {3-[3-(3,5-difluorophenyl)-6-oxo-6H-pyridazin-1-ylmethyl]phenyl}carbamate] showed an IC50 of 10 to 1000 nM.

`CNCCCCOC(=O)Nc1cccc(Cn2nc(-c3cc(F)cc(F)c3)ccc2=O)c1` [A155, 4-Methylaminobutyl {3-[3-(3,5-difluorophenyl)-6-oxo-6H-pyridazin-1-ylmethyl]phenyl}carbamate]: the IC50 was 10 to 1000 nM.

On to `O=C(Nc1cccc(Cn2nc(-c3cc(F)cc(F)c3)ccc2=O)c1)OCC1CCNCC1` [A156, Piperidin-4-ylmethyl {3-[3-(3,5-difluorophenyl)-6-oxo-6H-pyridazin-1-ylmethyl]phenyl}carbamate], for which the IC50 was in the range of 10 to 1000 nM.

For `O=c1ccc(-c2cc(F)cc(F)c2)nn1Cc1ccc2[nH]ncc2c1` [A161, 6-(3,5-difluorophenyl)-2-(1H-indazol-5-ylmethyl)-2H-pyridazin-3-one], the IC50 lay within 10 to 1000 nM.

The compound `O=c1[nH]c2ccc(Cn3nc(-c4cc(F)cc(F)c4)ccc3=O)cc2[nH]1` [A169, 5-[3-(3,5-Difluorophenyl)-6-oxo-6H-pyridazin-1-ylmethyl]-1,3-dihydrobenzimidazol-2-one] came in with an IC50 of 10 to 1000 nM.

As usually defined, the IC50 is the concentration at which inhibition is half-maximal.
